The record followed here is article PMC3162300 (Journal of Natural Products, 2011).

For this test, the target named is T1, IKK2 (Homo sapiens, UniProt O14920).
T1 sequence (O14920 1-756): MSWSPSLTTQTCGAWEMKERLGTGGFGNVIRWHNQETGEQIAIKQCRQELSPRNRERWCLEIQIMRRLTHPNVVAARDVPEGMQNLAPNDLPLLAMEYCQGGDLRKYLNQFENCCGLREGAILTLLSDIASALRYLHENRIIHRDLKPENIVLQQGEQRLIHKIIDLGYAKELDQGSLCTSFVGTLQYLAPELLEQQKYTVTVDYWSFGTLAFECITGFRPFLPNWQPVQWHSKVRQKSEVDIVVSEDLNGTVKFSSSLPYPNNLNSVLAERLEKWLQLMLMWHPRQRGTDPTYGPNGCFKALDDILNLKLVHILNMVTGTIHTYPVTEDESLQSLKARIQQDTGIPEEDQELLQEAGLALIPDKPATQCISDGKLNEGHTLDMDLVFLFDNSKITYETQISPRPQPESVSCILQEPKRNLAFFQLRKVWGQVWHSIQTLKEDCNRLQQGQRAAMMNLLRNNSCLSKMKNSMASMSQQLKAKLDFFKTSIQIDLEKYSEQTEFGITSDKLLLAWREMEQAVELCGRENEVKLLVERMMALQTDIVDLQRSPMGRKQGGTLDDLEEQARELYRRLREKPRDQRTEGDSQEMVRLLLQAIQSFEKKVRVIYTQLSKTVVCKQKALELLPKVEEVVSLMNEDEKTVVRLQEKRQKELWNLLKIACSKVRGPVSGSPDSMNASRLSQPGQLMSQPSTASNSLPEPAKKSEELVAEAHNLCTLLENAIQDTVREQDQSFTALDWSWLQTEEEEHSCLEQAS
The test can be described thus: IKK2 enzymatic activity assay. It is filed as biochemical. To be noted: 400 nM.

Molecules are shown by their SMILES.

For `NC(=O)Nc1sc(-c2ccc(F)cc2)cc1C(N)=O` [IKK2 inhibitor IV], the “effect on IKK2 enzymatic activity” value is recorded as “completely suppressed IKK2 enzymatic activity to the background level”.
